Source: patent US20220030867A1 (priority 2018, published 2022)

How the values were obtained:
Fusarium culmorum [1] = assay: whole plant or invertebrate; assay type: in vivo, Fusarium culmorum on wheat spikelets cv. Monsun; details: in Triticum aestivum, read-out: control of Fusarium culmorum
Fusarium culmorum [2] = assay: microbe, parasite or virus in culture; assay type: cell-based; details: read-out: control of Fusarium culmorum
[3] = test system: Botryotinia fuckeliana (Botrytis cinerea); assay: Botryotinia fuckeliana (Botrytis cinerea) / liquid culture (gray mould); assay type: cell-based; details: growth inhibition photometrically 3-4 days after application, vs untreated control
Experimental: Botryotinia fuckeliana (Botrytis cinerea)/Liquid Culture (Gray Mould)
(§1) Conidia of the fungus from cryogenic storage are directly mixed into nutrient broth (Vogels broth). After placing a (DMSO) solution of test compound into a microtiter plate (96-well format), the nutrient broth containing the fungal spores is added. The test plates are incubated at 24° C. and the inhibition of growth is determined photometrically 3-4 days after application.

[4] = test system: Magnaporthe grisea (Pyricularia oryzae); assay: microbe, parasite or virus in culture; assay type: cell-based; details: read-out: control of Magnaporthe grisea
[5] = test system: Glomerella lagenarium (Colletotrichum lagenarium); assay: Glomerella lagenarium (Colletotrichum lagenarium) / liquid culture (anthracnose); assay type: cell-based; details: Colletotrichum orbiculare, growth inhibition photometrically 3-4 days after application, vs untreated control
Experimental: as §1, with “(PDB potato dextrose” for “(Vogels”, “measured” for “determined”

Sclerotinia sclerotiorum = Sclerotinia sclerotiorum / liquid culture (cottony rot); assay type: cell-based; details: growth inhibition photometrically 3-4 days after application, vs untreated control
Experimental: Sclerotinia sclerotiorum/Liquid Culture (Cottony Rot)
as §1, with “Mycelia fragments of a newly grown liquid culture” for “Conidia”, “fungus” for “fungus from cryogenic storage”, “format)” for “format),”, “material” for “spores”

[6] = test system: Magnaporthe grisea (Pyricularia oryzae); assay: whole plant or invertebrate; assay type: in vivo, Magnaporthe grisea on rice leaf segments cv. Ballila; details: foliar, read-out: control of Magnaporthe grisea
[7] = test system: Monographella nivalis (Microdochium nivale); assay: Monographella nivalis (Microdochium nivale) / liquid culture (foot rot cereals); assay type: cell-based; details: growth inhibition photometrically 4-5 days after application, vs untreated control
Experimental: Monographella nivalis (Microdochium nivale)/Liquid Culture (Foot Rot Cereals)
as §1, with “(PDB potato dextrose” for “(Vogels”, “4-5” for “3-4”

Cc1nc2c(F)cccc2cc1NC(=O)[C@](C)(Cc1cccc(F)c1)CC(F)(F)F [Compound F-32, (2R)-4,4,4-trifluoro-N-(8-fluoro-2-methyl-3-quinolyl)-2-[(3-fluorophenyl)methyl]-2-methyl-butanamide]
pest or weed control at 200 ppm (Fusarium culmorum [1]): ≥ 80% | inhibition of growth at 200 ppm (Fusarium culmorum [2]): ≥ 80% | inhibition of growth at 200 ppm [3]: ≥ 80% | inhibition of growth at 200 ppm [4]: ≥ 80% | inhibition of growth at 200 ppm [5]: ≥ 80% | inhibition of growth at 20 ppm (Sclerotinia sclerotiorum): ≥ 80% | pest or weed control at 200 ppm [6]: ≥ 80%

Cc1c(NC(=O)[C@@H](Cc2ccccc2)CC(C)(C)C)cnc2c(F)cccc12 [Compound F-36, (2R)-2-benzyl-N-(8-fluoro-4-methyl-3-quinolyl)-4,4-dimethyl-pentanamide]
pest or weed control at 200 ppm (Fusarium culmorum [1]): ≥ 80% | inhibition of growth at 200 ppm (Fusarium culmorum [2]): ≥ 80% | inhibition of growth at 200 ppm [3]: ≥ 80% | inhibition of growth at 200 ppm [4]: ≥ 80% | inhibition of growth at 200 ppm [7]: ≥ 80% | inhibition of growth at 200 ppm [5]: ≥ 80% | inhibition of growth at 20 ppm (Sclerotinia sclerotiorum): ≥ 80% | pest or weed control at 200 ppm [6]: ≥ 80%

Cc1nc2c(F)cccc2cc1NC(=O)C(Cc1ccccc1)CC1(C)CC1 (stereo not drawn) [Compound E-89, 2-benzyl-N-(8-fluoro-2-methyl-3-quinolyl)-3-(1-methylcyclopropyl)propanamide]
pest or weed control at 200 ppm (Fusarium culmorum [1]): ≥ 80% | inhibition of growth at 200 ppm (Fusarium culmorum [2]): ≥ 80% | melting point: 162 to 163 °C | inhibition of growth at 200 ppm [3]: ≥ 80% | inhibition of growth at 200 ppm [4]: ≥ 80% | inhibition of growth at 200 ppm [7]: ≥ 80% | inhibition of growth at 200 ppm [5]: ≥ 80% | inhibition of growth at 20 ppm (Sclerotinia sclerotiorum): ≥ 80% | pest or weed control at 200 ppm [6]: ≥ 80%

CC1(CC(Cc2ccccc2)C(=O)Nc2cnc3c(F)cccc3c2)CC1 (stereo not drawn) [Compound E-91, 2-benzyl-N-(8-fluoro-3-quinolyl)-3-(1-methylcyclopropyl)propanamide]
pest or weed control at 200 ppm (Fusarium culmorum [1]): ≥ 80% | inhibition of growth at 200 ppm (Fusarium culmorum [2]): ≥ 80% | melting point: 135 to 136 °C | inhibition of growth at 200 ppm [3]: ≥ 80% | inhibition of growth at 200 ppm [4]: ≥ 80% | inhibition of growth at 200 ppm [7]: ≥ 80% | inhibition of growth at 200 ppm [5]: ≥ 80% | inhibition of growth at 20 ppm (Sclerotinia sclerotiorum): ≥ 80% | pest or weed control at 200 ppm [6]: ≥ 80%

Cc1c(NC(=O)C(Cc2ccccc2)CC(C)(C)C)cnc2c(F)cccc12 (stereo not drawn) [Compound E-96, 2-benzyl-N-(8-fluoro-4-methyl-3-quinolyl)-4,4-dimethyl-pentanamide]
pest or weed control at 200 ppm (Fusarium culmorum [1]): ≥ 80% | inhibition of growth at 200 ppm (Fusarium culmorum [2]): ≥ 80% | melting point: 135 to 136 °C | inhibition of growth at 200 ppm [3]: ≥ 80% | inhibition of growth at 200 ppm [4]: ≥ 80% | inhibition of growth at 200 ppm [7]: ≥ 80% | inhibition of growth at 200 ppm [5]: ≥ 80% | inhibition of growth at 20 ppm (Sclerotinia sclerotiorum): ≥ 80% | pest or weed control at 200 ppm [6]: ≥ 80%

Cc1nc2c(F)cccc2cc1NC(=O)[C@@](C)(Cc1cccc(F)c1)CC(C)C [Compound F-30, (2R)-N-(8-fluoro-2-methyl-3-quinolyl)-2-[(3-fluorophenyl)methyl]-2,4-dimethyl-pentanamide]
inhibition of growth at 200 ppm [3]: ≥ 80% | inhibition of growth at 200 ppm [4]: ≥ 80% | inhibition of growth at 200 ppm [7]: ≥ 80% | inhibition of growth at 200 ppm [5]: ≥ 80% | inhibition of growth at 20 ppm (Sclerotinia sclerotiorum): ≥ 80% | pest or weed control at 200 ppm [6]: ≥ 80%

Cc1c(NC(=O)C(C)(Cc2ccccc2)CC2(C)CC2)cnc2c(F)cccc12 (stereo not drawn) [Compound E-100, 2-benzyl-N-(8-fluoro-4-methyl-3-quinolyl)-2-methyl-3-(1-methylcyclopropyl)propanamide]
pest or weed control at 200 ppm (Fusarium culmorum [1]): ≥ 80% | inhibition of growth at 200 ppm (Fusarium culmorum [2]): ≥ 80% | melting point: 163 to 164 °C | inhibition of growth at 200 ppm [3]: ≥ 80% | inhibition of growth at 200 ppm [4]: ≥ 80% | inhibition of growth at 200 ppm [5]: ≥ 80% | inhibition of growth at 20 ppm (Sclerotinia sclerotiorum): ≥ 80% | pest or weed control at 200 ppm [6]: ≥ 80%

C=C(Cl)C[C@H](Cc1ccccc1)C(=O)Nc1cc2cccc(F)c2nc1C [Compound F-26, (2S)-2-benzyl-4-chloro-N-(8-fluoro-2-methyl-3-quinolyl)pent-4-enamide]
pest or weed control at 200 ppm (Fusarium culmorum [1]): ≥ 80% | inhibition of growth at 200 ppm (Fusarium culmorum [2]): ≥ 80% | inhibition of growth at 200 ppm [3]: ≥ 80% | inhibition of growth at 200 ppm [4]: ≥ 80% | inhibition of growth at 200 ppm [5]: ≥ 80% | inhibition of growth at 20 ppm (Sclerotinia sclerotiorum): ≥ 80% | pest or weed control at 200 ppm [6]: ≥ 80%

Cc1c(NC(=O)[C@H](Cc2ccccc2)CC(C)(C)C)cnc2c(F)cccc12 [Compound F-35, (2S)-2-benzyl-N-(8-fluoro-4-methyl-3-quinolyl)-4,4-dimethyl-pentanamide]
pest or weed control at 200 ppm (Fusarium culmorum [1]): ≥ 80% | inhibition of growth at 200 ppm (Fusarium culmorum [2]): ≥ 80% | inhibition of growth at 200 ppm [3]: ≥ 80% | inhibition of growth at 200 ppm [4]: ≥ 80% | inhibition of growth at 200 ppm [7]: ≥ 80% | inhibition of growth at 200 ppm [5]: ≥ 80% | pest or weed control at 200 ppm [6]: ≥ 80%

C=C(Cl)C[C@](C)(Cc1ccccc1)C(=O)Nc1cnc2c(F)cccc2c1C [Compound F-41, (2S)-2-benzyl-4-chloro-N-(8-fluoro-4-methyl-3-quinolyl)-2-methyl-pent-4-enamide]
pest or weed control at 200 ppm (Fusarium culmorum [1]): ≥ 80% | inhibition of growth at 200 ppm [3]: ≥ 80% | inhibition of growth at 200 ppm [7]: ≥ 80% | inhibition of growth at 200 ppm [5]: ≥ 80% | inhibition of growth at 20 ppm (Sclerotinia sclerotiorum): ≥ 80% | pest or weed control at 200 ppm [6]: ≥ 80%

Cc1nc2c(F)cccc2cc1NC(=O)[C@@H](Cc1ccccc1)CC(C)(C)C [Compound F-34, (2R)-2-benzyl-N-(8-fluoro-2-methyl-3-quinolyl)-4,4-dimethyl-pentanamide]
pest or weed control at 200 ppm (Fusarium culmorum [1]): ≥ 80% | inhibition of growth at 200 ppm (Fusarium culmorum [2]): ≥ 80% | inhibition of growth at 200 ppm [3]: ≥ 80% | inhibition of growth at 200 ppm [4]: ≥ 80% | inhibition of growth at 200 ppm [7]: ≥ 80% | inhibition of growth at 200 ppm [5]: ≥ 80% | inhibition of growth at 20 ppm (Sclerotinia sclerotiorum): ≥ 80% | pest or weed control at 200 ppm [6]: ≥ 80%

C=C(Cl)C[C@H](Cc1ccccc1)C(=O)Nc1cnc2c(F)cccc2c1C [Compound F-28, (2S)-2-benzyl-4-chloro-N-(8-fluoro-4-methyl-3-quinolyl)pent-4-enamide]
inhibition of growth at 200 ppm (Fusarium culmorum [2]): ≥ 80% | inhibition of growth at 200 ppm [3]: ≥ 80% | inhibition of growth at 200 ppm [4]: ≥ 80% | inhibition of growth at 200 ppm [7]: ≥ 80% | inhibition of growth at 200 ppm [5]: ≥ 80% | inhibition of growth at 20 ppm (Sclerotinia sclerotiorum): ≥ 80%

Cc1nc2c(F)cccc2cc1NC(=O)[C@](C)(Cc1cccc(F)c1)CC(C)C [Compound F-29, (2S)-N-(8-fluoro-2-methyl-3-quinolyl)-2-[(3-fluorophenyl)methyl]-2,4-dimethyl-pentanamide]
inhibition of growth at 200 ppm [3]: ≥ 80% | inhibition of growth at 200 ppm [4]: ≥ 80% | inhibition of growth at 200 ppm [7]: ≥ 80% | inhibition of growth at 200 ppm [5]: ≥ 80% | inhibition of growth at 20 ppm (Sclerotinia sclerotiorum): ≥ 80% | pest or weed control at 200 ppm [6]: ≥ 80%

C=C(Cl)C[C@@](C)(Cc1ccccc1)C(=O)Nc1cnc2c(F)cccc2c1C [Compound F-42, (2R)-2-benzyl-4-chloro-N-(8-fluoro-4-methyl-3-quinolyl)-2-methyl-pent-4-enamide]
pest or weed control at 200 ppm (Fusarium culmorum [1]): ≥ 80% | inhibition of growth at 200 ppm (Fusarium culmorum [2]): ≥ 80% | inhibition of growth at 200 ppm [3]: ≥ 80% | inhibition of growth at 200 ppm [4]: ≥ 80% | inhibition of growth at 200 ppm [7]: ≥ 80% | inhibition of growth at 200 ppm [5]: ≥ 80% | inhibition of growth at 20 ppm (Sclerotinia sclerotiorum): ≥ 80% | pest or weed control at 200 ppm [6]: ≥ 80%

Cc1nc2c(F)cccc2cc1NC(=O)C(Cc1ccccc1)CC(C)(C)C (stereo not drawn) [Compound E-97, 2-benzyl-N-(8-fluoro-2-methyl-3-quinolyl)-4,4-dimethyl-pentanamide]
pest or weed control at 200 ppm (Fusarium culmorum [1]): ≥ 80% | inhibition of growth at 200 ppm (Fusarium culmorum [2]): ≥ 80% | inhibition of growth at 200 ppm [3]: ≥ 80% | inhibition of growth at 200 ppm [4]: ≥ 80% | inhibition of growth at 200 ppm [7]: ≥ 80% | inhibition of growth at 200 ppm [5]: ≥ 80% | pest or weed control at 200 ppm [6]: ≥ 80%

C=C(Cl)C[C@](C)(Cc1ccccc1)C(=O)Nc1cc2cccc(F)c2nc1C [Compound F-44, (2S)-2-benzyl-4-chloro-N-(8-fluoro-2-methyl-3-quinolyl)-2-methyl-pent-4-enamide]
pest or weed control at 200 ppm (Fusarium culmorum [1]): ≥ 80% | inhibition of growth at 200 ppm (Fusarium culmorum [2]): ≥ 80% | inhibition of growth at 200 ppm [3]: ≥ 80% | inhibition of growth at 200 ppm [4]: ≥ 80% | inhibition of growth at 200 ppm [7]: ≥ 80% | inhibition of growth at 200 ppm [5]: ≥ 80% | inhibition of growth at 20 ppm (Sclerotinia sclerotiorum): ≥ 80% | pest or weed control at 200 ppm [6]: ≥ 80%

Cc1nc2c(F)cccc2cc1NC(=O)[C@@H](Cc1ccccc1)CC1(C)CC1 [Compound F-38, (2R)-2-benzyl-N-(8-fluoro-2-methyl-3-quinolyl)-3-(1-methylcyclopropyl)propanamide]
pest or weed control at 200 ppm (Fusarium culmorum [1]): ≥ 80% | inhibition of growth at 200 ppm (Fusarium culmorum [2]): ≥ 80% | inhibition of growth at 200 ppm [3]: ≥ 80% | inhibition of growth at 200 ppm [4]: ≥ 80% | inhibition of growth at 200 ppm [7]: ≥ 80% | inhibition of growth at 200 ppm [5]: ≥ 80% | inhibition of growth at 20 ppm (Sclerotinia sclerotiorum): ≥ 80%
